Source: BindingDB's records for doi:10.1021/jm070643q (Universit&#224, 2007)
pKi: −log10 of the molar value.

Target: beta-lactamase AmpC (Escherichia coli) (UniProt P00811)
Assay: Inhibition of Escherichia coli beta-lactamase

Sequence of beta-lactamase AmpC (Escherichia coli) (P00811 whole entry, looked up): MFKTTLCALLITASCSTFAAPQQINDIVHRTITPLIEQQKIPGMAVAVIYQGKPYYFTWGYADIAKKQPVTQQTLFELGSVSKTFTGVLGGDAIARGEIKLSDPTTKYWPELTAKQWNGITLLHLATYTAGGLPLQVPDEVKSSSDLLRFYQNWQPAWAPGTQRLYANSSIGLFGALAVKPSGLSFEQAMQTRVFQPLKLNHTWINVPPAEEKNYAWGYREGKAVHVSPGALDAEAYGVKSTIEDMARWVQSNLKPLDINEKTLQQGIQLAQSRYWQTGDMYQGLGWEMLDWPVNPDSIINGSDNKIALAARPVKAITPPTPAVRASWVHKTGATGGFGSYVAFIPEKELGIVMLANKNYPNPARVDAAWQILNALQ

Compound | pKi
O=CNCc1ccc2sc(B(O)O)cc2c1 [5-formylaminomethylbenzo[b]thiophen-2-ylboronic acid] | 6.35
Cc1ccc2sc(B(O)O)cc2c1 [5-methyl-benzo[b]thiophen-2-ylboronic acid] | 7.52
OB(O)c1cc2cc(Cn3ccnc3)ccc2s1 [5-imidazol-1-yl-methylbenzo[b]thiophen-2-ylboronic acid] | 7.09
